The experiment deals with BDF1 mice, P388 leukemia ip, median survival T/C. The experiment in a line: NCI In Vivo Anticancer Drug Screen. Data for tumor model P388 Leukemia (intraperitoneal) in B6D2F1 (BDF1) mice. Particulars: endpoint: median survival time, higher = longer survival. An outline of the steps:
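T/C = treated-group survival ÷ vehicle-control survival; tumour transplanted into mice before dosing.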

The mark [1] stands for this setting: dose: 50.0 mg/kg/injection, schedule: Q04DX003 (ip), vehicle: saline with Tween-80.
The mark [2] stands for this setting: dose: 100.0 mg/kg/injection, schedule: Q04DX003 (ip), vehicle: saline with Tween-80.
Where [3] appears, read: dose: 50.0 mg/kg/injection, schedule: Q01DX009 (ip), vehicle: saline with Tween-80.
Where [4] appears, read: dose: 100.0 mg/kg/injection, schedule: Q01DX009 (ip), vehicle: saline with Tween-80.
Where [5] appears, read: dose: 200.0 mg/kg/injection, schedule: Q01DX009 (ip), vehicle: saline with Tween-80.
Where [6] appears, read: dose: 200.0 mg/kg/injection, schedule: Q04DX003 (ip), vehicle: saline with Tween-80.
Where [7] appears, read: dose: 100.0 mg/kg/injection, schedule: Q04DX003 (ip), vehicle: saline.
[8] abbreviates: dose: 200.0 mg/kg/injection, schedule: Q04DX003 (ip), vehicle: saline.
Where [9] appears, read: dose: 400.0 mg/kg/injection, schedule: Q04DX003 (ip), vehicle: saline.

Molecules are shown by their SMILES. “And” between values parts separate entries of the source, which are not always exact repeats. Equal entries are not always repeated. Inconclusive results and toxic doses are left out.

Regarding `COc1cccc(CNc2ccc(C)c(Cl)c2)c1OC`, the T/C reads like this: (dose: 12.5 mg/kg/injection, schedule: Q01DX009 (ip), vehicle: gum acacia) 92 % of control; (dose: 25.0 mg/kg/injection, schedule: Q01DX009 (ip), vehicle: gum acacia) 107 % of control; (dose: 50.0 mg/kg/injection, schedule: Q01DX009 (ip), vehicle: gum acacia) 103 % of control; (dose: 100.0 mg/kg/injection, schedule: Q04DX003 (ip), vehicle: gum acacia) 91 % of control; (dose: 200.0 mg/kg/injection, schedule: Q04DX003 (ip), vehicle: gum acacia) 95 % of control; (dose: 400.0 mg/kg/injection, schedule: Q04DX003 (ip), vehicle: gum acacia) 95 % of control.

On to `CC1=C(/C=C/C(C)=C/C=C/C(C)=C/C(=O)O)C(C)(C)CCC1`, for which the T/C was 95 % of control (dose: 6.25 mg/kg/injection, schedule: Q01DX009 (ip), vehicle: saline with Tween-80); 104 % of control (dose: 12.5 mg/kg/injection, schedule: Q01DX009 (ip), vehicle: saline with Tween-80); 104 % of control (dose: 25.0 mg/kg/injection, schedule: Q01DX009 (ip), vehicle: saline with Tween-80).

As to `O=[N+]([O-])c1ccc(N(CCO)CCO)c2nonc12`, the T/C (dose: 15.0 mg/kg/injection, schedule: Q01DX009 (ip), vehicle: saline with Tween-80) was 101 % of control; the T/C (dose: 25.0 mg/kg/injection, schedule: Q04DX003 (ip), vehicle: saline with Tween-80) was 114 % of control; the T/C (dose: 30.0 mg/kg/injection, schedule: Q01DX009 (ip), vehicle: saline with Tween-80) is 100 % of control; the T/C under setting [1] is 97 % of control; the T/C (dose: 60.0 mg/kg/injection, schedule: Q01DX009 (ip), vehicle: saline with Tween-80) was 101 % of control; the T/C under setting [2] was 98 % of control.

Turning to `Cc1ccc(S(=O)(=O)NC(=O)NNC(=O)C(F)(F)F)cc1`, the T/C runs as follows: under setting [3], 114 % of control; under setting [4], 96 % of control; under setting [5], 109 % of control.

Regarding `COc1ccc2cc(Br)ccc2c1`, the T/C by setting is: under setting [2], 95 % of control; under setting [6], 109 % of control; (dose: 400.0 mg/kg/injection, schedule: Q04DX003 (ip), vehicle: saline with Tween-80) 100 % of control.

For `NNCCC(=O)O`, the T/C reads like this: under setting [7], 91 % of control; under setting [8], 112 % of control; (dose: 264.0 mg/kg/injection, schedule: Q04DX003 (ip), vehicle: saline) 113 % of control; under setting [9], 118 % of control and 123 % of control.

Take `CCOC(=O)CCN1CCCCC1`: the T/C reads like this: (dose: 100.0 mg/kg/injection, schedule: Q01DX009 (ip), vehicle: saline) 96 % of control; under setting [7], 95 % of control; (dose: 200.0 mg/kg/injection, schedule: Q01DX009 (ip), vehicle: saline) 89 % of control; under setting [8], 109 % of control; (dose: 400.0 mg/kg/injection, schedule: Q01DX009 (ip), vehicle: saline) 107 % of control; under setting [9], 109 % of control.

`CCc1nnc2c3cc4ccccc4n3cnn12`: the T/C reads like this: under setting [3], 86 % of control; under setting [4], 87 % of control; under setting [5], 103 % of control.

As for `CCC(C)C1NC(=O)C(NC(=O)c2c3nc4c(C(=O)NC5C(=O)NC(C(C)CC)C(=O)N6CCCC6C(=O)N(C)CC(=O)N(C)C(C(C)C)C(=O)OC5C)cc(N)c(C)c4oc-3c(C)c(=O)c2N)C(C)OC(=O)C(C(C)C)N(C)C(=O)CN(C)C(=O)C2CCCN2C1=O` (stereo not given), the T/C by setting is: (dose: 0.15 mg/kg/injection, schedule: Q04DX003 (ip), vehicle: saline + alcohol) 206 % of control; (dose: 0.3 mg/kg/injection, schedule: Q04DX003 (ip), vehicle: saline + alcohol) 227 % of control; (dose: 0.6 mg/kg/injection, schedule: Q04DX003 (ip), vehicle: saline + alcohol) 255 % of control and 312 % of control; (dose: 1.2 mg/kg/injection, schedule: Q04DX003 (ip), vehicle: saline + alcohol) 197 % of control; (dose: 25.0 micrograms/kg/injection, schedule: Q01DX009 (ip), vehicle: saline + alcohol) 190 % of control; (dose: 50.0 micrograms/kg/injection, schedule: Q01DX009 (ip), vehicle: saline + alcohol) 236 % of control. For the same compound, the T/C was 232 % of control (dose: 100.0 micrograms/kg/injection, schedule: Q01DX009 (ip), vehicle: saline + alcohol); 291 % of control (dose: 200.0 micrograms/kg/injection, schedule: Q01DX009 (ip), vehicle: saline + alcohol); 86 % of control (dose: 400.0 micrograms/kg/injection, schedule: Q01DX009 (ip), vehicle: saline + alcohol).

On to `CCCCCC(CN(C)C)C(=O)/C=C/c1cccc(O)c1` (stereo not given), for which the T/C is, setting by setting: under setting [3], 106 % of control; under setting [4], 98 % of control.

`CCCCCCCCCCCCCCCC(=O)N(CC#N)CC#N`: the T/C is, setting by setting: (dose: 100.0 mg/kg/injection, schedule: Q04DX003 (ip), vehicle: Klucel (hydroxypropylcellulose) (HPC)) 100 % of control; (dose: 200.0 mg/kg/injection, schedule: Q04DX003 (ip), vehicle: Klucel (hydroxypropylcellulose) (HPC)) 100 % of control; (dose: 400.0 mg/kg/injection, schedule: Q04DX003 (ip), vehicle: Klucel (hydroxypropylcellulose) (HPC)) 90 % of control.

For `C=CCN(CC=C)/N=N/c1nc[nH]c1C(N)=O`, the T/C is, setting by setting: under setting [1], 100 % of control; under setting [2], 95 % of control; under setting [6], 113 % of control.

For `c1ccc(CNc2ncncc2-c2ccccc2)cc1`, the T/C by setting is: under setting [3], 98 % of control; under setting [4], 105 % of control; under setting [5], 99 % of control.

Regarding `O=S1(=O)CC(N2CCCCC2)C2=C(CCN(c3ccccc3)C2)O1` (stereo not given), the T/C (dose: 100.0 mg/kg/injection, schedule: Q04DX002 (ip), vehicle: saline with Tween-80) was 112 % of control; the T/C (dose: 200.0 mg/kg/injection, schedule: Q04DX002 (ip), vehicle: saline with Tween-80) is 95 % of control; the T/C (dose: 400.0 mg/kg/injection, schedule: Q04DX002 (ip), vehicle: saline with Tween-80) was 98 % of control.

Regarding `O=C1Nc2c(Cl)cc(Cl)cc2C12Nc1ccccc1S2` (stereo not given), the T/C under setting [3] was 112 % of control, the T/C under setting [4] is 96 % of control and the T/C under setting [5] is 107 % of control.

Source of the values: PubChem BioAssay AID328 (DTP/NCI, 2004).
